Reference: PubChem BioAssay (NCI)
Several values for one entry are separate records, joined by “and”; a condition that tells them apart may be missing. Identical values can stand only once.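 Each compound was tested at five concentrations against cells in 96-well plates for 48 hours. At the GI50, growth is halved. TGI: total growth inhibition.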

Tests used:
Assay in all cases: DTP human tumour cell line panel, 48 h
TK-10 renal = test system: TK-10 renal
HCT-116 colon = test system: HCT-116 colon
UO-31 renal = test system: UO-31 renal
SK-MEL-5 melanoma = test system: SK-MEL-5 melanoma
SNB-75 CNS = test system: SNB-75 CNS
786-0 renal = test system: 786-0 renal
SF-295 CNS = test system: SF-295 CNS
SNB-19 CNS = test system: SNB-19 CNS
OVCAR-4 ovarian = test system: OVCAR-4 ovarian
CAKI-1 renal = test system: CAKI-1 renal

SMILES | GI50 (TK-10 renal) [µM] | TGI (TK-10 renal) [µM] | GI50 (HCT-116 colon) [µM] | TGI (HCT-116 colon) [µM] | GI50 (UO-31 renal) [µM] | TGI (UO-31 renal) [µM] | GI50 (SK-MEL-5 melanoma) [µM] | TGI (SK-MEL-5 melanoma) | GI50 (SNB-75 CNS) [µM] | TGI (SNB-75 CNS) | GI50 (786-0 renal) [µM] | TGI (786-0 renal) [µM] | GI50 (SF-295 CNS) [µM] | TGI (SF-295 CNS) [µM] | GI50 (SNB-19 CNS) [µM] | TGI (SNB-19 CNS) [µM] | GI50 (OVCAR-4 ovarian) [µM] | TGI (OVCAR-4 ovarian) | TGI (CAKI-1 renal) | GI50 (CAKI-1 renal)
O=C(Nc1cnc(C(F)(F)F)cn1)c1cc(Cl)ccc1O | 0.465 | > 100 | 0.246 | 1.4 | 0.196 | 1.16 | 0.131 | 0.336 µM | 0.194 | 0.835 µM | 0.356 | 15.9 | 0.255 | 0.675 | 0.403 | > 100 | 0.254 | > 100 µM |  | 
CC(=O)NNc1nc(C)c(C(=O)/C=C/c2ccc(/C=C/C(=O)c3sc(NNC(C)=O)nc3C)cc2)s1 |  | > 100 |  | > 100 |  | > 100 |  |  |  |  |  | > 100 |  | > 100 |  | > 100 |  | > 100 µM | > 100 µM | 
CC(C)=Nn1cnc(C(=N)C#N)c1N |  | > 100 |  | > 100 |  | > 100 |  |  |  | > 100 µM |  | > 100 |  | > 100 |  | > 100 |  | > 100 µM | > 100 µM | 
COC(=O)/C(C#N)=C1\CCc2ccccc21 |  | > 100 |  |  |  | > 100 |  | > 100 µM |  | > 100 µM |  | > 100 |  | > 100 |  | > 100 |  | > 100 µM | > 100 µM | 
CCCCc1c2c(nc3c1CCc1cc4cc5c(nc4nc1-3)-c1nc3c(c(CCCC)c1CC5)CCC/C3=C\c1ccccc1)/C(=C/c1ccccc1)CCC2 |  | > 100 |  | > 100 |  | > 100 |  |  |  | > 100 µM |  | > 100 |  | > 100 |  | > 100 |  |  |  | 
Cc1ccc(NC(=O)CC2SC(N)=NC2=O)cc1C (configuration not stated) |  | > 100 |  | > 100 |  | > 100 |  |  |  | > 100 µM |  | > 100 |  | > 100 |  | > 100 |  | > 100 µM | > 100 µM | 
CSc1nc(C#N)c(N)n1C |  | > 100 |  | > 100 |  | > 100 |  | > 100 µM |  |  |  | > 100 |  | > 100 |  | > 100 |  | > 100 µM | > 100 µM | 
COc1cc(C2CC(=O)Nc3c2cc(Br)c2ccccc32)cc(Br)c1OC (configuration not stated) |  |  | 0.602 | 2.44 |  |  | 2.82 | > 100 µM | 0.998 | 2.52 µM | 1.76 | 3.79 | 1.47 | 5.4 | 2.69 | 9.96 | 0.349 | 1.44 µM |  | 
Cc1cc(C)nc(NS(=O)(=O)c2ccc(NC(=O)c3cccn4c(=O)c5ccccc5nc34)cc2)n1 |  | > 100 |  | > 100 |  | 74.7 |  | > 100 µM |  | > 100 µM |  | > 100 |  | > 100 |  | > 100 |  | 68.3 µM |  | 
Nc1ccc(C(=O)N/C(=C\c2cccc([N+](=O)[O-])c2)c2nc3ccc(Cl)cc3[nH]2)cc1 |  | > 100 |  |  |  | > 100 |  | > 100 µM |  |  |  | > 100 |  | > 100 |  | > 100 |  | > 100 µM | > 100 µM | 
Cc1c2ccncc2c(C)c2c1c1cc(CO)ccc1n2C | 0.378 | 1.91 | 0.175 | 1.66 | 0.304 | 3.96 | 1.08 | 2.7 µM | 1.07 | 2.7 µM | 0.596 | 5.07 | 0.383 | 2.5 | 0.431 | 4.24 | 0.285 | 1.82 µM |  | 
Nc1ncccc1-c1nc2ccc(-c3ccccc3)nc2n1-c1ccc(C2(N)CCC2)cc1 | 0.719 | 8.01 | 1.43 | 2.91 | 0.278 | 2.03 | 1.36 | 2.67 µM | 0.0859 | 1.7 µM | 0.212 | 1.6 | 0.256 | 2.3 | 1.5 | 3.67 | 4.06 | 18.7 µM |  | 
COC(=O)/C(=C\c1ccco1)P(=O)(OC)OC |  | > 100 |  | > 100 |  |  |  | > 100 µM |  | > 100 µM |  | > 100 |  | 51.4 |  | > 100 |  | 33.7 µM | 65 µM | 
CCN(CC)CCC(CNc1c(C)cnc2cc(Cl)ccc12)c1ccc(Cl)cc1 (configuration not stated) | 10.9 | 23.8 |  |  |  |  | 1.73 | 3.18 µM | 5.67 | 21 µM | 8.53 | 22.6 | 2.53 | 10.7 | 11.4 | 26.8 | 4.17 | 21.1 µM | 16.8 µM | 3.51 µM
COc1ccc(-c2ccc(/C=N/n3c(COc4ccccc4Cl)n[nH]c3=S)o2)c([N+](=O)[O-])c1 | 13.2 | 39.5 | 17.3 | 33.8 | 31.7 | > 100 |  |  | > 100 | > 100 µM | 28.4 | > 100 | 22.6 | 56.5 | 42.2 | > 100 | 45.4 | > 100 µM | 59.3 µM | 24.6 µM
Cc1nn(C(=O)c2ccncc2)c2c1C(c1cccc([N+](=O)[O-])c1)SC(N)=N2 (configuration not stated) |  | > 10 |  | > 10 |  |  |  | > 10 µM |  | > 10 µM |  | > 10 |  | > 10 |  | > 10 |  | > 10 µM | > 10 µM | 
CC1=C[C@@H](C)C[C@]2(C)CC[C@H](O2)[C@]23CC[C@](C)(C[C@H](O2)[C@@H]2O[C@@](C)(CC2=O)[C@@H](O)[C@H]2CC[C@@]4(CCC[C@@H](O4)[C@H](C)C(=O)O[C@H]4C[C@H]([C@]5(O)OCC[C@H](C)[C@@H]5O)O[C@H]4C=C1)O2)O3 |  | 0.0277 |  |  |  | 0.0231 |  | 0.0212 µM |  |  |  | 0.181 |  |  |  |  |  |  | 0.00515 µM | 
Clc1ccccc1NN(Cc1ccncc1)c1ccccc1Cl |  |  |  | 25.7 |  | 63.3 |  | 27.6 µM |  | 32.1 µM |  | 26.6 |  | 31.6 |  | 37 |  | 25.2 µM |  | 
O=C(Nc1ccccc1Cl)c1cccc(NC2=C(Cl)C(=O)N(Cc3ccccc3)C2=O)c1 |  |  | 3.18 | 13.3 | 4.91 | 53.8 | 14.1 | 51.4 µM | 3.55 | > 100 µM | 10.2 | 60.5 | 23.3 | 92.3 | 60.5 | > 100 | 3.63 | 75.8 µM | 66.9 µM | 23.2 µM
O=C(O)[C@@H](NS(=O)(=O)c1ccc2ccccc2c1)c1ccccc1 |  |  |  |  |  | > 100 |  |  |  | > 100 µM |  | > 100 |  |  |  | > 100 |  | > 100 µM | > 100 µM | 
COC1(C)C(=O)N2C1N(C(=O)OCc1ccccc1)CC2(C)C (configuration not stated) |  | > 100 |  | > 100 |  | > 100 |  | > 100 µM |  | > 100 µM |  | > 100 |  | > 100 |  | > 100 |  | > 100 µM |  | 
COc1cccc2c1[C@H]1CO[C@H]3C4C[C@H](C(=O)O)C([C@@H](C2)N13)N4C (some centres not stated) |  | 5.71 |  |  |  | 7.72 | 0.588 | 4.31 µM and 1.23 µM | 0.809 | 4.85 µM and 3.53 µM |  | 4.67 |  | > 41.8 | 3.81 | > 100 | 0.99 | 8.21 µM and 10.5 µM | 6.06 µM and 28.8 µM | 2.17 µM and 2.9 µM
Cc1occ2c1C(=O)CC1C2[C@@H](O)CC2C(C)(C)CCC[C@]12C (some centres not stated) |  |  |  | > 100 |  | > 100 |  | > 100 µM |  | > 100 µM |  | > 100 |  | > 100 |  | > 100 |  | > 100 µM |  | 
CCOC(=O)c1c(NCc2ccccc2)n(-c2ccccc2)c(=S)n(-c2ccccc2)c1=O |  | > 100 |  |  |  | > 100 |  | > 100 µM |  | > 100 µM |  | > 100 |  | > 100 |  | > 100 |  | > 100 µM |  | 
CCCCCCCCCCCCCP(=O)(NCC(N)=O)OCC (configuration not stated) |  | 37.4 |  | 28 |  | 27.1 |  | 35.3 µM |  | 19.9 µM |  | 29 |  | 31.2 |  | 34.3 |  | 32.2 µM |  | 
COc1ccc(Oc2ccccc2NC(=O)CNC(=O)c2cccc3ccccc23)cc1 | 2.15 | > 25 | 0.61 | > 25 | 1.49 | > 25 | 0.377 | 8.41 µM |  |  | 1.14 | > 25 | 0.402 | > 25 | 1.24 | > 25 | 2.26 | > 25 µM |  | 
COc1ccc2c(c1)C(=O)c1c-2c(N2CCNCC2)nc2ccccc12 | 8.36 | 23.6 |  |  | 2.29 | 6.66 | 11.3 | 24.7 µM | 10.9 | 26.5 µM | 3.17 | 13.3 | 10.4 | 27.4 | 5.44 | 20.7 | 9.93 | 27.1 µM | 30.3 µM | 11.5 µM
